From patent publication US20230339981A1, “KRAS G12D MODULATING COMPOUNDS” (priority 2022, published 2023) come the findings set out here.

One assay relates to GP2D (KRAS G12D) cells. Kind of assay: 2D cell viability assay (CellTiter-Glo). The format is cell-based. Conditions: 4 days. An outline of the steps:
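GP2D (KRAS G12D) cells, 1000/well in RPMI + 10% FBS, were plated onto compound (1:3 DMSO series) and grown 4 days at 37 °C, 5% CO2 in 2D. CellTiter-Glo luminescence was read; EC50 is the concentration giving 50% signal decrease, from sigmoidal fit.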

In another assay the target is GDP-loaded KRAS G12D (Homo sapiens (Human), UniProt P01116, G12D). Kind of assay: KRAS G12D (GDP) biochemical assay (TR-FRET probe displacement). The assay is classed as binding. To be noted: 2 hours. The essentials: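 Compound pre-incubated 30 min with GDP-loaded KRAS G12D in 50 mM Hepes pH 7.4, 150 mM NaCl, 5 mM MgCl2, 0.005% Tween-20, then Eu-streptavidin and TR-FRET probe added. After 2 h at room temperature, TR-FRET ratio read; IC50 is 50% ratio decrease, sigmoidal fit.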
GDP-loaded KRAS G12D, sequence (P01116-2 other isoform, or with tags, fused parts or gaps G12D): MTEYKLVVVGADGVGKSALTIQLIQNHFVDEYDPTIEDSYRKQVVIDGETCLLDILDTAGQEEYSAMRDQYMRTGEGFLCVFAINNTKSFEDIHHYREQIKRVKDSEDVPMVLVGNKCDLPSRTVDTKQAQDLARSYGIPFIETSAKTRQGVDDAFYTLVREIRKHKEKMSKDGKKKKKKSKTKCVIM

A further assay relates to AsPC-1 (KRAS G12D) cells. Kind of assay: 3D cell viability assay (spheroids, CellTiter-Glo 3D). The format is cell-based. Conditions: AsPC-1 cells, 3D spheroids, 4 days. An outline of the steps: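 AsPC-1 cells (1000/well) in DMEM with 10% FBS formed spheroids over 3 days at 37 °C in ultra-low attachment plates, then were treated with 1:3 serial dilutions for 4 days. Viability read by CellTiter-Glo 3D luminescence; EC50 as concentration giving 50% signal decrease, sigmoidal fit.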

For the compound `C#Cc1c(F)ccc2cc(O)cc(-c3nc4c5c(nc(OC[C@@]67CCCN6C[C@H](F)C7)nc5c3F)N3C[C@H]5CC[C@H](N5)[C@@H]3[C@@H](CC)C4)c12` [Example 92, 4-((5S,5aS,6S,9R)-5-ethyl-1-fluoro-12-(((2R,7aS)-2-fluorotetrahydro-1H-pyrrolizin-7a(5H)-yl)methoxy)-4,5,5a,6,7,8,9,10-octahydro-3,10a,11,13,14-pentaaza-6,9-methanonaphtho[1,8-ab]heptalen-2-yl)-5-ethynyl-6-fluoronaphthalen-2-ol], the EC50 is 17.3 nM in the assay with GP2D (KRAS G12D) cells (GP2d, 96 h) and 52 nM in the assay with AsPC-1 (KRAS G12D) cells (Homo sapiens, ASPC1, 96 h). At GDP-loaded KRAS G12D, this compound showed an IC50 of 1.9 nM.
With `C#Cc1c(F)ccc2cccc(-c3nc4c5c(nc(OC[C@@]67CCCN6C[C@H](F)C7)nc5c3F)N3C[C@H]5CC[C@H](N5)[C@H]3C[C@H]4C)c12` [Example 95, (4R,5aS,6S,9R)-2-(8-ethynyl-7-fluoronaphthalen-1-yl)-1-fluoro-12-(((2R,7aS)-2-fluorotetrahydro-11H-pyrrolizin-7a(5H)-yl)methoxy)-4-methyl-4,5,5a,6,7,8,9,10-octahydro-3,10a,11,13,14-pentaaza-6,9-methanonaphtho[1,8-ab]heptalene], the EC50 stood at 31.9 nM in the assay on GP2D (KRAS G12D) cells (GP2d, 96 h) and 200 nM with AsPC-1 (KRAS G12D) cells (Homo sapiens, ASPC1, 96 h). Further, the half-inhibitory concentration (IC50) at GDP-loaded KRAS G12D was determined as 0.6 nM.
For `C#Cc1c(F)ccc2cc(O)cc(-c3nc4c5c(nc(OC[C@@]67CCCN6C[C@H](F)C7)nc5c3F)N3C[C@H]5CC[C@H](N5)[C@H]3CC4(F)F)c12` [Example 97, 5-ethynyl-6-fluoro-4-((5aR,6S,9R)-1,4,4-trifluoro-12-(((2R,7aS)-2-fluorotetrahydro-1H-pyrrolizin-7a(5H)-yl)methoxy)-4,5,5a,6,7,8,9,10-octahydro-3,10a,11,13,14-pentaaza-6,9-methanonaphtho[1,8-ab]heptalen-2-yl)naphthalen-2-ol], the EC50 in the assay with GP2D (KRAS G12D) cells (GP2d, 96 h) came out at 7.7 nM; in the assay on AsPC-1 (KRAS G12D) cells (Homo sapiens, ASPC1, 96 h) it was 55 nM. On GDP-loaded KRAS G12D, this compound yielded an IC50 of 0.2 nM.
Taken in the same sequence, the figures for `Oc1cc(-c2nc3c4c(nc(OC[C@@]56CCCN5C[C@@]5(CC5(F)F)C6)nc4c2F)N2C[C@H]4CC[C@H](N4)[C@H]2CC3)c2c(OC(F)(F)F)c(F)ccc2c1` [Example 99, 4-((5aR,6S,9R)-12-(((1S,7a'S)-2,2-difluorodihydro-1′H,3′H-spiro[cyclopropane-1,2′-pyrrolizin]-7a′(5′H)-yl)methoxy)-1-fluoro-4,5,5a,6,7,8,9,10-octahydro-3,10a,11,13,14-pentaaza[6,9]methanonaphtho[1,8-ab]heptalen-2-yl)-6-fluoro-5-(trifluoromethoxy)naphthalen-2-ol] were 7.4 nM, 110 nM and 0.6 nM.
As to `Oc1cc(-c2nc3c4c(nc(OCC5(CN6CCC(OC(F)(F)F)CC6)CC5)nc4c2F)N2C[C@H]4CC[C@H](N4)[C@H]2CC3)c2c(OC(F)(F)F)c(F)ccc2c1` [Example 102, 6-fluoro-4-((5aR,6S,9R)-1-fluoro-12-((1-((4-(trifluoromethoxy)piperidin-1-yl)methyl)cyclopropyl)methoxy)-4,5,5a,6,7,8,9,10-octahydro-3,10a,11,13,14-pentaaza-6,9-methanonaphtho[1,8-ab]heptalen-2-yl)-5-(trifluoromethoxy)naphthalen-2-ol], the concentration giving a half-maximal response (EC50) in the assay on GP2D (KRAS G12D) cells (GP2d, 96 h) was found to be 39.5 nM; with AsPC-1 (KRAS G12D) cells (Homo sapiens, ASPC1, 96 h), 680 nM. The IC50 at GDP-loaded KRAS G12D worked out at 3.3 nM.
In the case of `C#Cc1c(F)ccc2cc(O)cc(-c3nc4c5c(nc(OC[C@@]67CCCN6[C@H](COc6cccc(S(F)(F)(F)(F)F)c6)CC7)nc5c3F)N3C[C@H]5CC[C@H](N5)[C@H]3CC4)c12` [Example 104, 5-ethynyl-6-fluoro-4-((5aR,6S,9R)-1-fluoro-12-(((3S,7aS)-3-((3-(pentafluoro-λ6-sulfaneyl)phenoxy)methyl)tetrahydro-1H-pyrrolizin-7a(5H)-yl)methoxy)-4,5,5a,6,7,8,9,10-octahydro-3,10a,11,13,14-pentaaza-6,9-methanonaphtho[1,8-ab]heptalen-2-yl)naphthalen-2-ol], the EC50 in the assay with GP2D (KRAS G12D) cells (GP2d, 96 h) worked out at 8.7 nM; in the assay on AsPC-1 (KRAS G12D) cells (Homo sapiens, ASPC1, 96 h), 53 nM. On GDP-loaded KRAS G12D, this compound had an IC50 of 0.8 nM.
For `C#Cc1c(F)ccc2cc(O)cc(-c3nc4c5c(nc(OCC6(CN7CCC(OC(F)(F)F)CC7)CC6)nc5c3F)N3C[C@H]5CC[C@H](N5)[C@H]3CC4)c12` [Example 106, 5-ethynyl-6-fluoro-4-((5aR,6S,9R)-1-fluoro-12-((1-((4-(trifluoromethoxy)piperidin-1-yl)methyl)cyclopropyl)methoxy)-4,5,5a,6,7,8,9,10-octahydro-3,10a,11,13,14-pentaaza-6,9-methanonaphtho[1,8-ab]heptalen-2-yl)naphthalen-2-ol], the half-maximal effective concentration (EC50) stood at 1.9 nM with GP2D (KRAS G12D) cells (GP2d, 96 h) and 8.2 nM with AsPC-1 (KRAS G12D) cells (Homo sapiens, ASPC1, 96 h). For the same compound, at GDP-loaded KRAS G12D, the IC50 was 0.2 nM.
On to `C#Cc1c(F)ccc2cc(O)cc(-c3nc4c5c(nc(OC[C@@]67CCCN6[C@H](COC(C)(C(F)(F)F)C(F)(F)F)CC7)nc5c3F)N3C[C@H]5CC[C@H](N5)[C@H]3CC4)c12` [Example 109], for which the half-maximal effective concentration (EC50) with GP2D (KRAS G12D) cells (GP2d, 96 h) amounted to 1.2 nM; in the assay on AsPC-1 (KRAS G12D) cells (Homo sapiens, ASPC1, 96 h), 0.8 nM. This compound also gave an IC50 at GDP-loaded KRAS G12D of 0.1 nM.
As for `C#Cc1c(F)ccc2cc(O)cc(-c3nc4c5c(nc(OC[C@@]67CCCN6[C@H](COC(C6CC6)C(F)(F)F)CC7)nc5c3F)N3C[C@H]5CC[C@H](N5)[C@H]3CC4)c12` (stereo partly drawn) [Example 110, 4-((5aR,6S,9R)-12-(((3S,7aS)-3-((1-cyclopropyl-2,2,2-trifluoroethoxy)methyl)tetrahydro-1H-pyrrolizin-7a(5H)-yl)methoxy)-1-fluoro-4,5,5a,6,7,8,9,10-octahydro-3,10a,11,13,14-pentaaza-6,9-methanonaphtho[1,8-ab]heptalen-2-yl)-5-ethynyl-6-fluoronaphthalen-2-ol], the EC50 in the assay with GP2D (KRAS G12D) cells was found to be 36.1 nM; with AsPC-1 (KRAS G12D) cells it was 51 nM. Further, at GDP-loaded KRAS G12D, the IC50 is 0.3 nM.
As for `C#Cc1c(F)ccc2cccc(-c3nc4c5c(nc(OC[C@@]67CCCN6[C@H](COC(C6CC6)C(F)(F)F)CC7)nc5c3F)N3C[C@H]5CC[C@H](N5)[C@H]3CC4)c12` (stereo partly drawn) [Example 111, (5aR,6S,9R)-12-(((3S,7aS)-3-((1-cyclopropyl-2,2,2-trifluoroethoxy)methyl)tetrahydro-1H-pyrrolizin-7a(5H)-yl)methoxy)-2-(8-ethynyl-7-fluoronaphthalen-1-yl)-1-fluoro-4,5,5a,6,7,8,9,10-octahydro-3,10a,11,13,14-pentaaza-6,9-methanonaphtho[1,8-ab]heptalene], the EC50 with GP2D (KRAS G12D) cells (GP2d, 96 h) turned out to be 69.9 nM; in the assay on AsPC-1 (KRAS G12D) cells (Homo sapiens, ASPC1, 96 h), 360 nM. In addition, the IC50 on GDP-loaded KRAS G12D was 0.7 nM.
For `C#Cc1c(F)ccc2cccc(-c3nc4c5c(nc(OC[C@@]67CCCN6[C@H](COC(C)(C(F)(F)F)C(F)(F)F)CC7)nc5c3F)N3C[C@H]5CC[C@H](N5)[C@H]3CC4)c12` [Example 112, (5aR,6S,9R)-2-(8-ethynyl-7-fluoronaphthalen-1-yl)-1-fluoro-12-(((3S,7aS)-3-(((1,1,1,3,3,3-hexafluoro-2-methylpropan-2-yl)oxy)methyl)tetrahydro-1H-pyrrolizin-7a(5H)-yl)methoxy)-4,5,5a,6,7,8,9,10-octahydro-3,10a,11,13,14-pentaaza-6,9-methanonaphtho[1,8-ab]heptalene], the EC50 with GP2D (KRAS G12D) cells (GP2d, 96 h) stood at 41 nM; in the assay on AsPC-1 (KRAS G12D) cells (Homo sapiens, ASPC1, 96 h) it was 270 nM. Also, the IC50 at GDP-loaded KRAS G12D stood at 0.3 nM.
Taken in the same sequence, the figures for `C#Cc1c(F)ccc2cccc(-c3nc4c5c(nc(OC[C@@]67C[C@@H](F)CN6CC6(CC6)C7)nc5c3F)N3C[C@H]5CC[C@H](N5)[C@H]3CC4)c12` [Example 113, (5aR,6S,9R)-2-(8-ethynyl-7-fluoronaphthalen-1-yl)-1-fluoro-12-(((6′R,7a′R)-6′-fluorodihydro-1′H,3′H-spiro[cyclopropane-1,2′-pyrrolizin]-7a′(5′H)-yl)methoxy)-4,5,5a,6,7,8,9,10-octahydro-3,10a,11,13,14-pentaaza-6,9-methanonaphtho[1,8-ab]heptalene] were 7.3 nM, 57 nM and 0.2 nM.
For the compound `C#Cc1c(F)ccc2cccc(-c3nc4c5c(nc(OC[C@@]67CCCN6[C@H](COC(C)(C(F)(F)F)C(F)(F)F)CC7)nc5c3F)N3C[C@H]5CC[C@H](N5)[C@H]3CCC4)c12` [Example 115, (6aR,7S,10R)-2-(8-ethynyl-7-fluoronaphthalen-1-yl)-1-fluoro-13-(((3S,7aS)-3-(((1,1,1,3,3,3-hexafluoro-2-methylpropan-2-yl)oxy)methyl)tetrahydro-1H-pyrrolizin-7a(5H)-yl)methoxy)-5,6,6a,7,8,9,10,11-octahydro-4H-3,11a,12,14,15-pentaaza-7,10-methanocyclohepta[4,5]cycloocta[1,2,3-de]naphthalene], the EC50 in the assay with GP2D (KRAS G12D) cells (GP2d, 96 h) stood at 11.5 nM; with AsPC-1 (KRAS G12D) cells (Homo sapiens, ASPC1, 96 h), 100 nM. At GDP-loaded KRAS G12D, this compound came in with an IC50 of 0.1 nM.
As for `C#Cc1c(F)ccc2cccc(-c3nc4c5c(nc(OC[C@@]67CCCN6C[C@H](F)C7)nc5c3F)N3C[C@H]5CC[C@H](N5)[C@H]3[C@H](C)O4)c12` [Example 116, (5S,5aS,6S,9R)-2-(8-ethynyl-7-fluoronaphthalen-1-yl)-1-fluoro-12-(((2R,7aS)-2-fluorotetrahydro-1H-pyrrolizin-7a(5H)-yl)methoxy)-5-methyl-5a,6,7,8,9,10-hexahydro-5H-4-oxa-3,10a,11,13,14-pentaaza-6,9-methanonaphtho[1,8-ab]heptalene], the EC50 in the assay on GP2D (KRAS G12D) cells (GP2d, 96 h) stood at 6 nM; with AsPC-1 (KRAS G12D) cells (Homo sapiens, ASPC1, 96 h), 25 nM. In addition, the IC50 on GDP-loaded KRAS G12D was determined as 0.6 nM.
